US20120142705A1, “ISATIN AND OXINDOLE COMPOUNDS” (priority 2010, published 2012)

Biological target: T1, Recombinant human liver GK1 (GST-GK) (Homo sapiens, UniProt P35557)
T1 construct: made in house; host or cells: E. coli
T1 sequence (P35557 1-466 isoform P35557-2): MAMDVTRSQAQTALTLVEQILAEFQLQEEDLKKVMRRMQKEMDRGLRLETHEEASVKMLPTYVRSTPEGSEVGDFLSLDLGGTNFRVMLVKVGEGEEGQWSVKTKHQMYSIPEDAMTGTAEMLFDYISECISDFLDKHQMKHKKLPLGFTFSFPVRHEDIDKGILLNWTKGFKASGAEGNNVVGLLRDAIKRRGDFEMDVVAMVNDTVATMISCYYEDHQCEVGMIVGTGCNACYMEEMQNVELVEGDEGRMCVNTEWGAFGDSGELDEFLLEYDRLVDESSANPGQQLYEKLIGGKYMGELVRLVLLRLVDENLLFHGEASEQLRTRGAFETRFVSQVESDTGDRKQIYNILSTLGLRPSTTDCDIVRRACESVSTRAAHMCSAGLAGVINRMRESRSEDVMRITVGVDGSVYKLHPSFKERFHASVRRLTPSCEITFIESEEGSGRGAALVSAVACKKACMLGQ
Test: In vitro glucokinase activity, G6PDH-coupled spectrophotometric assay
Format: biochemical
Conditions: 5 mM D-glucose, 30° C.; for SC1.5 (concentration of activator that produced a 50% increase in the activity of GK): pH 7.1
Description: Glucokinase In Vitro Assay Protocol: Glucokinase (GK) was assayed by coupling the production of glucose-6-phosphate to the generation of NADH with glucose-6-phosphate dehydrogenase (G6PDH, 0.75-1 kunits/mg; Boehringer Mannheim, Indianapolis, Ind.) from Leuconostoc mesenteroides as the coupling enzyme (Scheme 2).
Recombinant human liver GK1 was expressed in E. coli as a glutathione S-transferase fusion protein (GST-GK) [Liang et al, 1995] and was purified by chromatography over a glutathione-Sepharose 4B affinity column using the procedure provided by the manufacturer (Amersham Pharmacia Biotech, Piscataway, N.J.).
The assay was conducted at 30° C. in a flat bottom 96-well tissue culture plate from Costar (Cambridge, Mass.) with a final incubation volume of 120 μL. The incubation reaction contained the following: 25 mM Hepes buffer (pH 7.1), 25 mM KCl, 5 mM D-glucose, 1 mM ATP, 1.8 mM NAD, 2 mM MgCl2, 1 μM sorbitol-6-phosphate, 1 mM dithiothreitol, test drug or 10% dimethylsulfoxide, ˜7 units/ml G6PDH, and GK (see below). All organic reagents were >98% pure and were from Boehringer Mannheim with the exceptions of D-glucose and Hepes which were from Sigma Chemical Co, St Louis, Mo. Test compounds were dissolved in dimethylsulfoxide and were added to the incubation reaction minus GST-GK in a volume of 12 μL to yield a final dimethylsulfoxide concentration of 10%. This mix was pre-incubated in the temperature controlled chamber of a SPECTRAmax 250 microplate spectrophotometer (Molecular Devices Corporation, Sunnyvale, Calif.) for 10 minutes to allow temperature equilibrium and then the reaction was started by the addition of 20 μL GST-GK.
After addition of enzyme, the increase in optical density (OD) at 340 nm was monitored spectrophotometrically to determine the rate of change (OD340 per min). The GK activity (OD340/min) in control wells (10% dimethylsulfoxide minus GK activators) was compared with the activity in wells containing test GK activators, and the concentration of activator that produced a 50% increase in the activity of GK, i.e., the SC1.5, was calculated.

SMILES | SC1.5 (concentration of activator that produced a 50% increase in the activity of GK) [µM] | fold induction at 30 µM
CC(C)CC(C(=O)Nc1ccn(C)n1)N1C(=O)C(=O)c2cc(Br)ccc21 (stereo not shown) [Example 70, 2-(5-Bromo-2,3-dioxo-2,3-dihydro-indol-1-yl)-4-methyl-pentanoic acid (1-methyl-1H-pyrazol-3-yl)-amide] |  | 1.32
O=C(Nc1cnccn1)C(CC1CCCC1)N1C(=O)Cc2cc(Br)ccc21 (stereo not shown) [Example 67, 2-(5-Bromo-2-oxo-2,3-dihydro-indol-1-yl)-3-cyclopentyl-N-pyrazin-2-yl-propionamide] | 1.28 | 
Cn1ccc(NC(=O)C(CC2CCCC2)N2C(=O)C(=O)c3c(Cl)cccc32)n1 (stereo not shown) [Example 15, 2-(4-Chloro-2,3-dioxo-2,3-dihydro-indol-1-yl)-3-cyclopentyl-N-(1-methyl-1H-pyrazol-3-yl)-propionamide] | 6.5 | 
O=C(Nc1nccs1)C(CC1CCCC1)N1C(=O)Cc2c(Cl)cccc21 (stereo not shown) [Example 22, 2-(4-Chloro-2-oxo-2,3-dihydro-indol-1-yl)-3-cyclopentyl-N-thiazol-2-yl-propionamide] | 1.98 | 
O=C1C(=O)N(C(CC2CCCC2)C(=O)Nc2cnccn2)c2cccc(Cl)c21 (stereo not shown) [Example 13, 2-(4-Chloro-2,3-dioxo-2,3-dihydro-indol-1-yl)-3-cyclopentyl-N-pyrazin-2-yl-propionamide] | 6.94 | 
CC(C)CC(C(=O)Nc1ccccn1)N1C(=O)C(=O)c2cc(Cl)ccc21 (stereo not shown) [Example 102, 2-(5-Chloro-2,3-dioxo-2,3-dihydro-indol-1-yl)-4-methyl-pentanoic acid pyridin-2-ylamide] | 16.89 | 
COc1ccc2c(c1)CC(=O)N2C(CC1CCCC1)C(=O)Nc1ccn(C)n1 (stereo not shown) [Example 50, 3-Cyclopentyl-2-(5-methoxy-2-oxo-2,3-dihydro-indol-1-yl)-N-(1-methyl-1H-pyrazol-3-yl)-propionamide] | 8.39 | 
O=C(Nc1cnccn1)C(CC1CCCC1)N1C(=O)Cc2c(Cl)cccc21 (stereo not shown) [Example 24, 2-(4-Chloro-2-oxo-2,3-dihydro-indol-1-yl)-3-cyclopentyl-N-pyrazin-2-yl-propionamide] | 2.66 | 
O=C1C(=O)N(C(CC2CCCC2)C(=O)Nc2ccccn2)c2ccccc21 (stereo not shown) [Example 6, 3-Cyclopentyl-2-(2,3-dioxo-2,3-dihydro-indol-1-yl)-N-pyridin-2-yl-propionamide] | 5.19 | 
Cc1ccc2c(c1)CC(=O)N2C(CC1CCCC1)C(=O)Nc1ccn(C)n1 (stereo not shown) [Example 81, 3-Cyclopentyl-2-(5-methyl-2-oxo-2,3-dihydro-indol-1-yl)-N-(1-methyl-1H-pyrazol-3-yl)-propionamide] | 11.29 | 
O=C(Nc1ccccn1)C(CC1CCCC1)N1C(=O)Cc2ccc(F)cc21 (stereo not shown) [Example 127, 3-Cyclopentyl-2-(6-fluoro-2-oxo-2,3-dihydro-indol-1-yl)-N-pyridin-2-yl-propionamide] | 0.18 | 
Cn1ccc(NC(=O)C(CC2CCCC2)N2C(=O)Cc3cc(Cl)ccc32)n1 (stereo not shown) [Example 99, 2-(5-Chloro-2-oxo-2,3-dihydro-indol-1-yl)-3-cyclopentyl-N-(1-methyl-1H-pyrazol-3-yl)-propionamide] | 3.3 | 
Cc1ccc2c(c1)CC(=O)N2C(CC(C)C)C(=O)Nc1ccccn1 (stereo not shown) [Example 90, 4-Methyl-2-(5-methyl-2-oxo-2,3-dihydro-indol-1-yl)-pentanoic acid pyridin-2-ylamide] | 12.84 | 

Continued, values first:

SC1.5 (concentration of activator that produced a 50% increase in the activity of GK) [µM] | fold induction at 30 µM | SMILES
16.22 |  | CC(C)CC(C(=O)Nc1nccs1)N1C(=O)Cc2ccccc21 (stereo not shown) [Example 11, 4-Methyl-2-(2-oxo-2,3-dihydro-indol-1-yl)-pentanoic acid thiazol-2-ylamide]
 | 1.2 | CC(C)CC(C(=O)Nc1nccs1)N1C(=O)C(=O)c2ccccc21 (stereo not shown) [Example 10, 2-(2,3-Dioxo-2,3-dihydro-indol-1-yl)-4-methyl-pentanoic acid thiazol-2-ylamide]
0.1 |  | O=C(Nc1ccccn1)C(CC1CCCC1)N1C(=O)Cc2ccc(Cl)cc21 (stereo not shown) [Example 122, 2-(6-Chloro-2-oxo-2,3-dihydro-indol-1-yl)-3-cyclopentyl-N-pyridin-2-yl-propionamide]
1.9 |  | O=C1C(=O)N(C(CC2CCCC2)C(=O)Nc2ccccn2)c2cccc(Cl)c21 (stereo not shown) [Example 14, 2-(4-Chloro-2,3-dioxo-2,3-dihydro-indol-1-yl)-3-cyclopentyl-N-pyridin-2-yl-propionamide]
5.97 |  | CC(C)CC(C(=O)Nc1nccs1)N1C(=O)C(=O)c2cc(OC(F)(F)F)ccc21 (stereo not shown) [Example 40, 2-(2,3-Dioxo-5-trifluoromethoxy-2,3-dihydro-indol-1-yl)-4-methyl-pentanoic acid thiazol-2-ylamide]
0.49 |  | O=C(Nc1nccs1)C(CC1CCCC1)N1C(=O)Cc2cc(OC(F)(F)F)ccc21 (stereo not shown) [Example 35, 3-Cyclopentyl-2-(2-oxo-5-trifluoromethoxy-2,3-dihydro-indol-1-yl)-N-thiazol-2-yl-propionamide]
11.4 |  | CC(C)CC(C(=O)Nc1cnccn1)N1C(=O)Cc2cc(Br)ccc21 (stereo not shown) [Example 75, 2-(5-Bromo-2-oxo-2,3-dihydro-indol-1-yl)-4-methyl-pentanoic acid pyrazin-2-ylamide]
7.4 |  | Cn1ccc(NC(=O)C(CC2CCCC2)N2C(=O)Cc3c(Cl)cccc32)n1 (stereo not shown) [Example 23, 2-(4-Chloro-2-oxo-2,3-dihydro-indol-1-yl)-3-cyclopentyl-N-(1-methyl-1H-pyrazol-3-yl)-propionamide]
1.91 |  | N#Cc1ccc2c(c1)N(C(CC1CCCC1)C(=O)Nc1ccccn1)C(=O)C2 (stereo not shown) [Example 137, 2-(6-Cyano-2-oxo-2,3-dihydro-indol-1-yl)-3-cyclopentyl-N-pyridin-2-yl-propionamide]
3.24 |  | CC(C)CC(C(=O)Nc1ccccn1)N1C(=O)Cc2cc(Br)ccc21 (stereo not shown) [Example 74, 2-(5-Bromo-2-oxo-2,3-dihydro-indol-1-yl)-4-methyl-pentanoic acid pyridin-2-ylamide]
1.07 |  | Cn1ccc(NC(=O)C(CC2CCCC2)N2C(=O)Cc3cc(OC(F)(F)F)ccc32)n1 (stereo not shown) [Example 34, 3-Cyclopentyl-N-(1-methyl-1H-pyrazol-3-yl)-2-(2-oxo-5-trifluoromethoxy-2,3-dihydro-indol-1-yl)-propionamide]
19.72 |  | CC(C)CC(C(=O)Nc1cnccn1)N1C(=O)C(=O)c2cc(OC(F)(F)F)ccc21 (stereo not shown) [Example 37, 2-(2,3-Dioxo-5-trifluoromethoxy-2,3-dihydro-indol-1-yl)-4-methyl-pentanoic acid pyrazin-2-ylamide]
0.49 |  | O=C(Nc1ccccn1)C(CC1CCCC1)N1C(=O)Cc2cc(Cl)ccc21 (stereo not shown) [Example 100, 2-(5-Chloro-2-oxo-2,3-dihydro-indol-1-yl)-3-cyclopentyl-N-pyridin-2-yl-propionamide]
9.95 |  | CC(C)CC(C(=O)Nc1nccs1)N1C(=O)Cc2c(Cl)cccc21 (stereo not shown) [Example 28, 2-(4-Chloro-2-oxo-2,3-dihydro-indol-1-yl)-4-methyl-pentanoic acid thiazol-2-ylamide]
4.95 |  | CC(C)CC(C(=O)Nc1ccccn1)N1C(=O)Cc2cc(Cl)ccc21 (stereo not shown) [Example 108, 2-(5-Chloro-2-oxo-2,3-dihydro-indol-1-yl)-4-methyl-pentanoic acid pyridin-2-ylamide]
